In general, IC50 refers to the concentration needed to halve the response being measured.

The subject of the assay is HT-29 cells. In words: Cell-based necroptosis assay for RIPK1 activity (cell viability, CCK-8). The following applies: HT29 (human colon cancer), Z-VAD-FMK 20 μM, human TNFα 10 ng/ml, SM-164 100 nM, 24 h, read-out: Necroptosis inhibition (IC50). How it is done: Human colon carcinoma cell HT-29 (KCLB 30038), BV2 mouse microglial cell (cell was a kind gift from Dr. Nak-Yun Sung, Senior researcher at Korea Prime Pharmacy CO., LTD.) and human microglial cell HMC3 (ATCC® CRL-3304™). HT-29 cell was grown in Roswell Park Memorial Institute (RPMI) 1640, BV2 cell was grown in Dulbecco's Modified Eagle's Medium (DMEM) and HMC3 cell was grown in Minimum Essential Media Eagle (MEM) supplemented with 10% fetal bovine serum and 1% mixture of penicillin and streptomycin (Gibco). Cells were maintained at 37° C. in a humidified 5% CO2 atmosphere.
To measure the activity of RIPK1 inhibitor in necroptotic cells, HT-29 cells were treated by control DMSO, human TNFα (Peprotech, Rocky Hill, USA), SM-164 (Biovision, California, USA) and a pan-caspase inhibitor Z-VAD-FMK (Invivogen, San Diego, USA). Cells were pretreated with Z-VAD-FMK 20 μM. After 30 min, human TNFα 10 ng/ml, SM-164 100 nM and RIPK1 Inhibitor (0.0001, 0.001, 0.01, 0.02, 0.05, 0.1, 1, 10 uM) were treated for 24 h. Cell viability was measured by Cell Counting Kit 8 (CCK-8) (Dong-in, Seoul, Korea).

Molecules are shown by their SMILES. Some results are limits rather than exact numbers.

Turning to `O=C1Nc2c(F)cc(F)cc2CC[C@@H]1NC(=O)n1cc(Cc2cccc(F)c2)cn1` [Example 26, (S)—N-(7,9-difluoro-2-oxo-2,3,4,5-tetrahydro-1H-benzo[b]azepin-3-yl)-4-(3-fluorobenzyl)-1H-pyrazole-1-carboxamide], the IC50 was under 10 nM. The same measure for `O=C1Nc2c(F)cc(F)cc2OC[C@@H]1NC(=O)n1cc(Cc2ccccc2)cn1` [Example 14, (S)-4-benzyl-N-(6,8-difluoro-4-oxo-2,3,4,5-tetrahydrobenzo[b][1,4]oxazepin-3-yl)-1H-pyrazole-1-carboxamide]: under 100 nM. In the case of `CN1C(=O)C(NC(=O)n2cc(Cc3ccccc3)cn2)CCc2nccnc21` (stereo not shown) [Example 31, 4-benzyl-N-(5-methyl-6-oxo-6,7,8,9-tetrahydro-5H-pyrazino[2,3-b]azepin-7-yl)-1H-pyrazole-1-carboxamide] it was over 100 nM; in that of `CN1C(=O)C(NC(=O)n2cc(Cc3cccc(F)c3)cn2)CCc2cc(F)cc(F)c21` (stereo not shown) [Example 28, N-(7,9-difluoro-1-methyl-2-oxo-2,3,4,5-tetrahydro-1H-benzo[b]azepin-3-yl)-4-(3-fluorobenzyl)-1H-pyrazole-1-carboxamide], under 10 nM; in that of `CN1C(=O)[C@@H](NC(=O)n2cc(Cc3ccccc3)cn2)COc2cnccc21` [Example 24, (S)-4-benzyl-N-(1-methyl-2-oxo-1,2,3,4-tetrahydropyrido[3,4-b][1,4]oxazepin-3-yl)-1H-pyrazole-1-carboxamide], under 100 nM.

Turning to `CN1C(=O)[C@@H](NC(=O)n2cc(Cc3cccc(F)c3)cn2)COc2ccnc(F)c21` [Example 33, (S)—N-(6-fluoro-5-methyl-4-oxo-2,3,4,5-tetrahydropyrido[4,3-b][1,4]oxazepin-3-yl)-4-(3-fluorobenzyl)-1H-pyrazole-1-carboxamide], the IC50 is under 100 nM.

`CN1C(=O)[C@@H](NC(=O)n2cc(Cc3cccc(C(F)(F)F)c3)cn2)COc2ccccc21` [Example 6, (S)—N-(5-methyl-4-oxo-2,3,4,5-tetrahydrobenzo[b][1,4]oxazepin-3-yl)-4-(3-(trifluoromethyl)benzyl)-1H-pyrazole-1-carboxamide]: the IC50 is under 100 nM.
